Measurements from ChEMBL document CHEMBL4340557, “Fasudil dichloroacetate (FDCA), an orally available agent with potent therapeutic efficiency on monocrotaline-induced pulmonary arterial hypertension rats” (Bioorg Med Chem Lett, 2019).
One block for each molecule: values may come before it.

How the values were obtained:
[1] = Elimination rate constant in Sprague-Dawley rat at 12.48 mg/kg, po by LC-MS/MS analysis; type: ADME, organism-based; conditions: in vivo
[2] = test system: Rattus norvegicus; experiment: (§1) Anti-hypersensitive activity in MCT-induced pulmonary arterial hypertension Sprague-Dawley rat model assessed as pulmonary artery medial thickness at 37.5 mg/kg, po administered daily for 14 days starting from 14 days post-MCT challenge and measured post-last dose by hematoxylin and eosin staining-based microscopic analysis (reference value: […] +/- […]); type: functional
[3] = test system: Rattus norvegicus; experiment: Hemodynamic activity in Sprague-Dawley rat assessed as effect on mean systemic arterial pressure at 37.5 mg/kg, po administered daily for 2 weeks in presence of DCA by pressure transducer-coupled polygraphy; type: ADME, organism-based; conditions: in vivo, 336 h
[4] = Tmax in Sprague-Dawley rat at 12.48 mg/kg, po by LC-MS/MS analysis; type: ADME, organism-based; conditions: in vivo
[5] = test system: Rattus norvegicus; experiment: (§2) Anti-hypersensitive activity in MCT-induced pulmonary arterial hypertension Sprague-Dawley rat model assessed as mean pulmonary artery pressure at 37.5 mg/kg, po administered daily for 14 days starting from 14 days post-MCT challenge and measured post-last dose by pressure transducer-coupled polygraphy (reference value: 36 +/- 2.83 mmHg); type: functional
[6] = Cmax in Sprague-Dawley rat at 12.48 mg/kg, po by LC-MS/MS analysis; type: ADME, organism-based; set-up: dose 12.48 mg/kg, route oral; conditions: in vivo
[7] = AUC (0 to infinity) in Sprague-Dawley rat at 12.48 mg/kg, po by LC-MS/MS analysis; type: ADME, organism-based; set-up: dose 12.48 mg/kg, time infinity, route oral; conditions: in vivo
[8] = Plasma concentration in Sprague-Dawley rat at 12.48 mg/kg, po measured at 2 hrs by LC-MS/MS analysis; type: ADME, organism-based
[9] = test system: Rattus norvegicus; experiment: (§3) Anti-hypersensitive activity in MCT-induced pulmonary arterial hypertension Sprague-Dawley rat model assessed as lung fibrosis at 37.5 mg/kg, po administered daily for 14 days starting from 14 days post-MCT challenge and measured post-last dose in presence of DCA by Masson's trichrome staining-based microscopic analysis (reference value: 6.12 +/- 1.66%); type: functional
[10] = test system: Rattus norvegicus; experiment: as §3, with “dose” for “dose in presence of DCA”; type: functional
[11] = test system: Rattus norvegicus; experiment: as §2, with “right ventricular systolic” for “mean pulmonary artery”, “dose in presence of DCA” for “dose”, “59.06” for “36”, “3.26” for “2.83”; type: functional
[12] = AUMC (0 to infinity) in Sprague-Dawley rat at 12.48 mg/kg, po by LC-MS/MS analysis; type: ADME, organism-based; conditions: in vivo
[13] = test system: Rattus norvegicus; experiment: as §3, with “reduction in cardiomyocyte hypertrophy by measuring cross-sectional area of cardiomyocyte” for “lung fibrosis”, “hematoxylin and eosin” for “Masson's trichrome”, “418” for “6.12”, “50.88 micrometer2)” for “1.66%)”; type: functional
[14] = Plasma concentration in Sprague-Dawley rat at 12.48 mg/kg, po measured at 4 hrs by LC-MS/MS analysis; type: ADME, organism-based
[15] = Plasma concentration in Sprague-Dawley rat at 12.48 mg/kg, po measured at 1 hr by LC-MS/MS analysis; type: ADME, organism-based
[16] = test system: Rattus norvegicus; experiment: Hemodynamic activity in Sprague-Dawley rat assessed as effect on mean systemic arterial pressure at 37.5 mg/kg, po administered daily for 2 weeks by pressure transducer-coupled polygraphy; type: ADME, organism-based; conditions: in vivo, 336 h
[17] = MRT in Sprague-Dawley rat at 12.48 mg/kg, po by LC-MS/MS analysis; type: ADME, organism-based; conditions: in vivo
[18] = test system: Rattus norvegicus; experiment: (§4) Anti-hypersensitive activity in MCT-induced pulmonary arterial hypertension Sprague-Dawley rat model assessed as reduction in cardiomyocyte hypertrophy by measuring cross-sectional area of cardiomyocyte at 37.5 mg/kg, po administered daily for 14 days starting from 14 days post-MCT challenge and measured post-last dose by hematoxylin and eosin staining-based microscopic analysis (reference value: 418 +/- 50.88 micrometer2); type: functional
[19] = AUMC (0 to t) in Sprague-Dawley rat at 12.48 mg/kg, po by LC-MS/MS analysis; type: ADME, organism-based; conditions: in vivo
[20] = test system: Rattus norvegicus; experiment: as §3, with “reduction in cardiomyocyte hypertrophy by measuring cardiac” for “lung”, “11.74” for “6.12”, “3.24 %)” for “1.66%)”; type: functional; set-up: scale not given: the % may be the effect or the level left
[21] = Plasma concentration in Sprague-Dawley rat at 12.48 mg/kg, po measured at 0.5 hrs by LC-MS/MS analysis; type: ADME, organism-based
[22] = test system: Rattus norvegicus; experiment: as §2, with “right ventricular systolic” for “mean pulmonary artery”, “59.06” for “36”, “3.26” for “2.83”; type: functional
[23] = test system: Rattus norvegicus; experiment: as §1, with “dose in presence of DCA” for “dose”; type: functional
[24] = test system: Rattus norvegicus; experiment: as §2, with “dose in presence of DCA” for “dose”; type: functional
[25] = AUC (0 to t) in Sprague-Dawley rat at 12.48 mg/kg, po by LC-MS/MS analysis; type: ADME, organism-based; conditions: in vivo
[26] = test system: Rattus norvegicus; experiment: as §3, with “reduction in cardiomyocyte hypertrophy by measuring cardiac” for “lung”, “dose” for “dose in presence of DCA”, “11.74” for “6.12”, “3.24 %)” for “1.66%)”; type: functional; set-up: scale not given: the % may be the effect or the level left
[27] = Plasma concentration in Sprague-Dawley rat at 12.48 mg/kg, po measured at 0.25 hrs by LC-MS/MS analysis; type: ADME, organism-based
[28] = test system: Rattus norvegicus; experiment: as §2, with “15.5” for “37.5”; type: functional
[29] = test system: Rattus norvegicus; experiment: Hemodynamic activity in Sprague-Dawley rat assessed as effect on mean systemic arterial pressure at 15.5 mg/kg, po administered daily for 2 weeks by pressure transducer-coupled polygraphy; type: ADME, organism-based; conditions: in vivo, 336 h
[30] = test system: Rattus norvegicus; experiment: as §2, with “right ventricular hypertrophy index” for “mean pulmonary artery pressure”, “15.5” for “37.5”, “[…]” for “36”, “[…]” for “2.83”; type: functional
[31] = test system: Rattus norvegicus; experiment: as §2, with “right ventricular systolic” for “mean pulmonary artery”, “15.5” for “37.5”, “59.06” for “36”, “3.26” for “2.83”; type: functional
[32] = test system: Rattus norvegicus; experiment: as §3, with “15.5” for “37.5”, “dose” for “dose in presence of DCA”; type: functional
[33] = test system: Rattus norvegicus; experiment: as §4, with “15.5” for “37.5”; type: functional
[34] = test system: Rattus norvegicus; experiment: as §1, with “15.5” for “37.5”; type: functional
[35] = test system: Rattus norvegicus; experiment: as §3, with “reduction in cardiomyocyte hypertrophy by measuring cardiac” for “lung”, “15.5” for “37.5”, “dose” for “dose in presence of DCA”, “11.74” for “6.12”, “3.24 %)” for “1.66%)”; type: functional; set-up: scale not given: the % may be the effect or the level left

k el [1]: 0.000253 s⁻¹ | Tmax [4]: 15 min | Cmax [6]: 84.2 ng/mL | AUC(0-inf) [7]: 59.8 ng·h/mL | concentration at 2 h [8]: 7.01 ng/mL | AUMC [12]: 75.7 hr.hr.ng/ml | concentration at 4 h [14]: 3.85 ng/mL | concentration at 1 h [15]: 17.8 ng/mL | MRT [17]: 1.2 h | AUMCt [19]: 52.8 hr.hr.ng/ml | concentration at 0.5 h [21]: 23.2 ng/mL | AUC(0-t) [25]: 55.4 ng·h/mL | concentration at 0.25 h [27]: 84.2 ng/mL
SMILES: Cl.O=S(=O)(c1cccc2cnccc12)N1CCCNCC1 [FASUDIL HYDROCHLORIDE]
Activity [2]: 0.21 | Activity [3]: Non-Toxic | Activity [5]: 32.83 mmHg | Activity [9]: 6.71% | Activity [10]: 6.41% | Activity [11]: 51.13 mmHg | Activity [13]: 341.12 um2 | Activity [16]: Non-Toxic | Activity [18]: 354.35 um2 | Activity [20]: 3.84% | Activity [22]: 59.9 mmHg | Activity [23]: 0.2 | Activity [24]: 29.83 mmHg | Activity [26]: 3.97%

SMILES: O=C([O-])C(Cl)Cl.[Na+] [SODIUM DICHLOROACETATE]
Activity [28]: 34 mmHg | Activity [29]: Non-Toxic | Activity_index [30]: 0.564 | Activity [31]: 57.4 mmHg | Activity [32]: 12.45% | Activity [33]: 387.53 um2 | Activity [34]: 0.3 | Activity [35]: 8.47%
